Measurements reported in the supplement of paper PMC10307832.

Key:
Experiment in all cases: relative viability (nuclei count vs DMSO), 5 days (fraction); higher = more cells survive
[1] = compound: CCN(CC)CCCCNc1ncc2cc(-c3cc(OC)cc(OC)c3)c(NC(=O)NC(C)(C)C)nc2n1
Outline: (§1)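 Lung cancer cell lines were seeded into 1536-well plates, kept overnight at 37 °C and pinned with five library-drug doses (not always all listed) spaced by √10. After 5 days, nuclei were Hoechst-stained, imaged at 4× and counted with MetaXpress. Viability is treated-well nuclei over vehicle-well nuclei, taken as a median across plates. Plates needed control CV below 25% and at least one doubling.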

PRIMA-1MET = compound: COCC1(CO)C(=O)C2CCN1CC2 [PRIMA-1MET]
Outline: as §1

Zibotentan = compound: COc1nc(C)cnc1NS(=O)(=O)c1cccnc1-c1ccc(-c2nnco2)cc1 [Zibotentan]
Outline: as §1

[2] = compound: C1COCCN1C2=CC(=O)C3=C(O2)C(=CC=C3)C4=CC=CC5=C4SC6=CC=CC=C56
Outline: as §1

[3] = compound: O=c1cc(-c2cccc3c2Sc2ccccc2S3)oc(N2CCOCC2)c1
Outline: as §1

Cell Line | relative viability ([1]; 0.01 µM) | relative viability ([1]; 0.03162 µM) | relative viability ([1]; 0.1 µM) | relative viability ([1]; 0.3162 µM) | relative viability ([1]; 1 µM) | relative viability (PRIMA-1MET; 0.2 µM) | relative viability (PRIMA-1MET; 0.6325 µM) | relative viability (PRIMA-1MET; 2 µM) | relative viability (PRIMA-1MET; 6.325 µM) | relative viability (PRIMA-1MET; 20 µM) | relative viability (Zibotentan; 0.08 µM) | relative viability (Zibotentan; 0.253 µM) | relative viability (Zibotentan; 0.8 µM) | relative viability (Zibotentan; 2.53 µM) | relative viability ([2]; 0.01 µM) | relative viability ([2]; 0.03162 µM) | relative viability ([2]; 0.1 µM) | relative viability ([2]; 0.3162 µM) | relative viability ([2]; 1 µM) | relative viability ([3]; 0.08 µM) | relative viability ([3]; 0.253 µM) | relative viability ([3]; 0.8 µM) | relative viability ([3]; 2.53 µM) | relative viability ([3]; 8 µM)
NCI-H2085 | 1.03 | 0.987 | 0.99 | 1.02 | 0.972 | 1.06 | 1 | 0.791 | 1.05 | 0.524 | 1.01 | 0.954 | 1.05 | 1.03 | 0.986 | 0.961 | 0.97 | 0.974 | 0.966 | 0.95 | 1.1 | 1.05 | 0.96 | 0.892
NCI-H2087 | 1.02 | 0.966 | 1.16 | 1.03 | 0.942 | 0.687 | 0.883 | 0.912 | 1.17 | 0.773 | 0.934 | 1.02 | 1.16 | 1.05 | 1.11 | 1.08 | 1.01 | 0.977 | 1.05 | 0.958 | 1.15 | 1.12 | 0.835 | 1.13
NCI-H2126 | 1.02 | 0.992 | 1.06 | 1.07 | 0.983 | 1.03 | 0.978 | 0.901 | 1.03 | 0.978 | 1.01 | 0.965 | 0.913 | 1.05 | 0.972 | 1 | 1 | 1.01 | 0.98 | 0.986 | 1.03 | 0.862 | 0.932 | 1.03
NCI-H2170 | 1.08 | 0.976 | 1.02 | 1.05 | 1 | 1.02 | 0.848 | 0.971 | 1.07 | 0.946 | 0.997 | 0.992 | 0.968 | 1 | 0.969 | 1.02 | 0.973 | 0.947 | 0.965 | 0.946 | 1.05 | 1 | 0.911 | 0.991
NCI-H2228 | 0.984 | 1.06 | 1.26 | 1.16 | 0.941 | 0.99 | 0.964 | 1.07 | 1.06 | 0.0562 | 1.09 | 0.997 | 0.956 | 0.994 | 1.25 | 0.89 | 0.981 | 0.821 | 1.03 | 1.04 | 1.09 | 1.02 | 1.07 | 1.1
NCI-H2342 | 0.932 | 0.899 | 0.971 | 1.09 | 1.06 | 1.07 | 1.05 | 0.693 | 0.974 | 0.915 | 0.937 | 0.945 | 0.944 | 0.942 | 1.01 | 1.04 | 0.955 | 0.959 | 0.875 | 0.836 | 1.07 | 0.964 | 0.982 | 1.04
NCI-H2347 | 0.998 | 1.01 | 1.12 | 1.15 | 0.931 | 0.961 | 0.959 | 0.779 | 1.11 | 1.02 | 1.04 | 0.95 | 1.12 | 1.06 | 1.11 | 0.979 | 0.957 | 0.981 | 0.988 | 0.96 | 1.07 | 1.1 | 1.13 | 1.13
NCI-H2405 | 0.988 | 1.03 | 1.13 | 1.08 | 0.982 | 0.881 | 0.972 |  | 0.952 | 0.509 | 1.06 | 0.942 | 1.03 | 1.09 | 1.03 | 0.906 | 1.03 | 1.1 | 0.958 | 0.958 | 0.998 | 0.979 | 0.878 | 1.14
NCI-H3122 | 1.02 | 1.04 | 1.07 | 1.1 | 0.967 | 0.85 | 0.972 | 0.948 | 1.01 | 1 | 1.02 | 1.01 | 0.978 | 0.98 | 1.01 | 0.988 | 1.01 | 0.961 | 1.01 | 1.01 | 1.02 | 1.03 | 1.03 | 1.08
PC-3 [JPC-3] | 1.1 | 1.02 | 1.12 | 1.23 | 0.911 | 1.16 | 1 | 0.997 | 1.07 | 0.997 | 1.06 | 0.979 | 1.05 | 1.06 | 0.965 | 1.01 | 0.91 | 1.03 | 0.977 | 0.99 | 1.05 | 1.02 | 0.943 | 1.08
PC-14 | 1.09 | 1.06 | 1.18 | 1.25 | 0.966 | 1.06 | 0.956 | 0.944 | 1.05 | 0.688 | 1.04 | 0.873 | 1.05 | 1.02 | 0.936 | 0.993 | 0.981 | 1.09 | 0.971 | 1.02 | 1.18 | 0.981 | 0.87 | 1.06
RERF-LC-KJ | 1.02 | 1.11 | 1.04 | 1.06 | 0.978 | 1.11 | 1.01 | 1.06 | 1.12 | 0.952 | 1.02 | 0.925 | 0.904 | 1.03 | 0.992 | 0.974 | 1.03 | 0.949 | 0.956 | 0.932 | 1.09 | 1.03 | 0.968 | 0.929
SK-LU-1 | 1.05 | 0.991 | 1.24 | 1.27 | 0.952 | 1.16 | 1.06 | 0.801 | 1.13 | 0.837 | 1.01 | 1.04 | 1.02 | 1.08 | 1.05 | 1.13 | 0.92 | 1.07 | 1.04 | 1.14 | 1.14 | 1.3 | 0.97 | 1.13
SK-MES-1 | 1.09 | 1.07 | 1.08 | 1.08 | 1.01 | 1.1 | 1 | 0.993 | 1.09 | 0.98 | 1.01 | 0.911 | 0.955 | 1.07 | 1 | 1 | 0.999 | 0.988 | 0.934 | 1 | 1.16 | 0.927 | 0.933 | 0.928
